Test results from paper PMC6838683, “Discovery of Human Signaling Systems: Pairing Peptides to G Protein-Coupled Receptors” (Cell, 2019).
Like-named read-outs stand apart in the source and are kept apart here.

How the values were obtained:
OPRD1 = target: T1, OPRD1 (Homo sapiens, UniProt P41143); assay: β-arrestin recruitment (Tango), known peptide receptors; assay type: cell-based; settings: mean, n = 3
T1 construct: host or cells: HTLA cells (HEK293-derived)
Description: (§1) Supplement mmc7.xlsx, sheet "Peptide validation data" | column: Emax; pEC50

NPSR = target: T2, NPSR (Homo sapiens, UniProt Q6W5P4); assay: as above; assay type: cell-based; settings: mean, n = 3
T2 construct: host or cells: HTLA cells (HEK293-derived)
Description: as §1

NPY4R = assay: as above; assay type: cell-based, human; settings: endogenous ligand(s) included in peptide library
Description: Supplement mmc6.xlsx, sheet "Peptide GPCR controls" | column: Confirmed?

MRGPRX2 = target: T3, MRGPRX2 (Homo sapiens, UniProt Q96LB1); assay: Repeat of proposed literature pairing (mass redistribution and/or internalization); assay type: cell-based; settings: repeat of literature pairing across multiple assays; cleavage variants CST-14 and SRIF-28 tested; Figure S7A
T3 construct: host or cells: HTLA cells (HEK293-derived)
T3 sequence (Q96LB1 1-330): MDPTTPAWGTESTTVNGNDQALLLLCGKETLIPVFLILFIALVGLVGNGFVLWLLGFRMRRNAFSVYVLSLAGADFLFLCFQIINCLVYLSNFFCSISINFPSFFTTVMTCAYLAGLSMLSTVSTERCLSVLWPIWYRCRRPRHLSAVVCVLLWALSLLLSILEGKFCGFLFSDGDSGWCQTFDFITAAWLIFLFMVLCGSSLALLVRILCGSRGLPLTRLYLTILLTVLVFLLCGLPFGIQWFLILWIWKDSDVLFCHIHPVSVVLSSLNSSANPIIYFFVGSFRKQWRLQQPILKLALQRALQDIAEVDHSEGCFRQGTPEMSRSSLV
Description: (§2) DMR assays provide a single integrated readout of ligand-dependent cellular response, utilizing an optical biosensor in specialized microplates to detect wavelength shifts of reflected light as it passes through the biosensor and the lower portion of the cell (∼150-200 nm). As a signal pathway agnostic approach, DMR assays are well-suited to the study of GPCRs ([Fang et al., 2008], [Schröder et al., 2011]). The mass redistribution response (Δ picometer (pm)) likely reflects a number of intracellular events, including cytoskeletal rearrangement, protein trafficking and receptor internalization. […] After 3-5 min baseline recordings, peptides (10 μM) were added in duplicate wells using an electronic 384-channel Viaflo pipette (Integra Biosciences, Switzerland) and DMR responses were measured for 60 min at 22°C. […] Real-time data were processed using the BT to column converter MS-Excel macro (Corning) and analyzed in GraphPad Prism 7.0. DMR recordings in peptide screening experiments were buffer and solvent corrected and the area under the curve (AUC) was quantified. […]
(§3) A TR-FRET real-time internalization assay was used to examine peptide-dependent changes in orphan receptor localization as described previously ([Foster and Bräuner-Osborne, 2018]). […] For peptide screening analysis (both DMR and internalization assays), we calculated the area under the curve from the real-time traces. […]

BRS3 = assay: as above; assay type: cell-based, human; settings: target BRS3
GPR55 = GPR55 (Homo sapiens, UniProt Q9Y2T6); assay: as above; assay type: cell-based; parameters: hIL-2Ra signal peptide (N); expressed in transfected cells; settings: target GPR55
Description: as §2, §3

human GPCRs = system: human GPCRs; parameters: method as in Guide to Pharmacology database; settings: max reported value, ref Guide to Pharmacology database, cited from earlier work
Description: Supplement mmc1.xlsx, sheet "HumanGPCRLigands" | column: pKi_value; pKd_value; pEC50_value; pIC50_value

GPR1 = target: T4, GPR1 (Homo sapiens, UniProt P46091); assay: Repeat of proposed literature pairing (mass redistribution and/or internalization); assay type: cell-based; parameters: host or cells: HTLA cells (HEK293-derived)
T4 sequence (P46091 1-355): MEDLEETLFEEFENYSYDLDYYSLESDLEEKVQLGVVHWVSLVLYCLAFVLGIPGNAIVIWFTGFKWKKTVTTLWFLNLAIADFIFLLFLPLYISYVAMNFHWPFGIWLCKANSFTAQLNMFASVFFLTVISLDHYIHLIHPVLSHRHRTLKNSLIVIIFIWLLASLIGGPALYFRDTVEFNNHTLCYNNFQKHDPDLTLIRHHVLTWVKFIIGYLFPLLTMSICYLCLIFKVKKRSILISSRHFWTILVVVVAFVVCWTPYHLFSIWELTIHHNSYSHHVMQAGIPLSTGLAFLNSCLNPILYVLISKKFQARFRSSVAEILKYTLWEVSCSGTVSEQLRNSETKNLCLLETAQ
Description: as §2, §3

GPR3 = settings: target GPR3
PRRP = assay: β-arrestin recruitment (Tango), known peptide receptors; assay type: cell-based, human
Description: Supplement mmc6.xlsx, sheet "Peptide GPCR controls" | column: Confirmed?; Notes

GPR68 = assay: Repeat of proposed literature pairing (mass redistribution and/or internalization); assay type: cell-based, human; settings: target GPR68
[1] = reported ligand tested on receptor-expressing cell line
[2] = receptor CMKLR1 (cml1_human, Q99788)

Chain of GPR55 (Q9Y2T6 2-319 limits assumed): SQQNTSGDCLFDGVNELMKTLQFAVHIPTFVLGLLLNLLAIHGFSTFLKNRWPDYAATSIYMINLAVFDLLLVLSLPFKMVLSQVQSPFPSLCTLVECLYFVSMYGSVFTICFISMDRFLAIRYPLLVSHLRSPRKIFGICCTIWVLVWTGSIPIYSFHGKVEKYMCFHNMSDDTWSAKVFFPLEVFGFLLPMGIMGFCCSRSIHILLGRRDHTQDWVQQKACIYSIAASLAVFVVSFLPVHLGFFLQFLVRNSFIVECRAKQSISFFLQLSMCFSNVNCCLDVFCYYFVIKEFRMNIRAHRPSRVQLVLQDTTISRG
T1 sequence (P41143 whole entry): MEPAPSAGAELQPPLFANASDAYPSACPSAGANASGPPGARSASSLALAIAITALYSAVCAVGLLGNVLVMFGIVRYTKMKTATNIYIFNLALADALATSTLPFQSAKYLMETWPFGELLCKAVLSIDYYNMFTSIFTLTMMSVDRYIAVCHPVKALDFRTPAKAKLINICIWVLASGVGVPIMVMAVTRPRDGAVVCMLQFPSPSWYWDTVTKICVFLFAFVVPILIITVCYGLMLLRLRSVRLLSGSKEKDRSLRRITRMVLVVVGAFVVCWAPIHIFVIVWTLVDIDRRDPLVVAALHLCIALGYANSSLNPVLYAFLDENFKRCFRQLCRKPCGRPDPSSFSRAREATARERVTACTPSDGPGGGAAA
T2 sequence (Q6W5P4 whole entry): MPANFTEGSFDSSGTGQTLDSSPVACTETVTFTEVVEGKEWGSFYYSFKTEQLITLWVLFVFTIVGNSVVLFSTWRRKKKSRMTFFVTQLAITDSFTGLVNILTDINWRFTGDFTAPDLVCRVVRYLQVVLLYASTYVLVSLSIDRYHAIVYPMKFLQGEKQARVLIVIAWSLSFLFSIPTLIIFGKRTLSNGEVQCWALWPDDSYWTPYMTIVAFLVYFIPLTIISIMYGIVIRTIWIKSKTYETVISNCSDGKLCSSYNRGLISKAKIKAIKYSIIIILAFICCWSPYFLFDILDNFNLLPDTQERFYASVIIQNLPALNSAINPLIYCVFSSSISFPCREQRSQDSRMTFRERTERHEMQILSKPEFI

VLDQLSA [Peptide 25]
Emax, Tango (fold over basal) (OPRD1): 5.0 fold over basal | pEC50, Tango (fold over basal) (OPRD1): 5.58

SFRNGVGSGVKKTSF [Peptide 107]
Emax, Tango (fold over basal) (NPSR): 2.2 fold over basal | pEC50, Tango (fold over basal) (NPSR): 6.03

Pancreatic hormone (PH)
Confirmed? (confirmation of b-arrestin recruitment) (NPY4R): No

cortistatin
receptor-dependent activation by proposed ligand, MRGPRX2 (MRGPRX2): selective receptor-dependent activation

O[C@@](Cc1ncc(CC2(C(F)(F)F)CC2)[nH]1)(c1ccc(-n2cccn2)cc1)C(F)(F)F [MK-5046]
Comment (response in DMR / internalization assays) (BRS3): Robust response | Active in DMR/internalization (BRS3; [1]): Yes

Cc1c(C(=O)NN2CCCCC2)nn(-c2ccc(Cl)cc2Cl)c1-c1ccc(I)cc1 [AM251]
Comment (response in DMR / internalization assays) (GPR55): Robust response | Active in DMR/internalization (GPR55; [1]): Yes

chemerin [reference compound]
pEC50_value (human GPCRs; [2]): 8.5 | pKd_value (human GPCRs; [2]): 8.3 | Peptide pairing for orphan receptor GPR1 (confirmed/unconfirmed) (GPR1; repeat of literature pairing): Confirmed peptide pairings for orphans | receptor-dependent activation by proposed ligand, GPR1 (GPR1; repeat of literature pairing across multiple assays, Figure S7A, Tables S5 and S7): selective receptor-dependent activation

[Cl-].c1ccc2c(c1)[I+]c1ccccc1-2 [Diphenyleneiodonium chloride (DPI)]
Comment (response in DMR / internalization assays) (GPR3): Robust response in DMR, no response in internalization assay | Active in DMR/internalization (GPR3; [1]): Yes (DMR)

PrRP-31
Confirmed? (confirmation of b-arrestin recruitment) (PRRP; endogenous ligand(s) included in peptide library, Tango): Yes | Notes (b-arrestin recruitment response) (PRRP; screen and validation): No response in screen, small response in validation | pKi_value (human GPCRs; receptor PRLHR (prlhr_human, P49683)): 9.2

Peptide YY (PYY)
Confirmed? (confirmation of b-arrestin recruitment) (NPY4R): No

somatostatin [reference compound]
receptor-dependent activation by proposed ligand, MRGPRX2 (MRGPRX2): selective receptor-dependent activation | pKi_value (human GPCRs; receptor SSTR1 (ssr1_human, P30872)): 9.4 | pKi_value (human GPCRs; receptor SSTR2 (ssr2_human, P30874)): 10.2 | pKi_value (human GPCRs; receptor SSTR3 (ssr3_human, P32745)): 9.9 | pKi_value (human GPCRs; receptor SSTR4 (ssr4_human, P31391)): 9.2 | pKi_value (human GPCRs; receptor SSTR5 (ssr5_human, P35346)): 10.3

Nc1nc(NCc2ccccc2)nc(-c2ccccc2CO)n1 [ZINC67740571 (ogerin)]
Comment (response in DMR / internalization assays) (GPR68): Robust response in DMR, no response in internalization assay | Active in DMR/internalization (GPR68; [1]): Yes (DMR)
